Results from patent publication US20250262139A1, “POLYPEPTIDES AND METHODS FOR IMPROVING SKIN CONDITIONS” (INTERK PEPTIDE THERAPEUTICS LIMITED, priority 2020, published 2025).
Where no end group is shown, it is not given here.

Tests used:
human skin explants [1] = experiment: CPD formation in UV-irradiated human skin explants; assay type: cell-based
Procedure: Human skin removed at elective surgery was cleaned, dissected and cut into pieces of approx. 5 mm×5 mm. Each piece was placed in a well of a 96 well plate, with individual plates prepared to assess the effects 3 hrs post treatment. All samples were performed in triplicate for each treatment. Skin was subjected to UV-radiation from solar-simulated UV source for 1.5 h (UVR), or non-irradiation (SHAM). Given that human skin is thicker than mouse skin, human skin explants were exposed to a radiation dose three times higher than that used for mouse skin, i.e., 20 J/cm2 versus 7 J/cm^2, respectively, and the output spectrum of the laboratory solar simulator has previously been reported (Rybchyn M S et al, J Invest Dermatol. 2018 May; 138 (5): 1146-1156) and treated immediately after with a vehicle control, Calcitriol (1 nM) or the polypeptide IK34720 (SEQ ID NO: 3) at concentrations of 50 μM, 250 μM or 500 μM.
Samples harvested at 3 hrs were fixed, section, stained and quantified as described in Example 5.

[2] = test system: human primary melanocytes; experiment: melanin content after UVB, primary melanocytes; assay type: cell-based; conditions: 10 μM for 24 hours prior to 2 kJ/m2 UVB; measured 24 hours later; relative to untreated UVB cells
Procedure: (§1) In brief, MM1418-C1 lightly pigmented melanoma cells or human primary melanocytes were grown in 24 well culture plates and treated with 10 μM
(§2) RSKAKNPLYRRRRRRRRR (“IK-3”) for 24 hours prior to being exposed to 2 kJ/m2 UVB radiation. Controls (not treated with RSKAKNPLYRRRRRRRRR) labelled “Con” and “UVB”, respectively, were exposed to either 0 or 2 KJ/m2 UVB radiation. Cell groups were returned to the incubator for 24 hours and then the levels of melanin and protein in the cells were measured spectrophotometrically. In each experiment triplicate samples were measured. Data shown in FIG. 19 indicate the average values+SEM (μg melanin/mg cell protein) exposed to 0 or 2 KJ/m2 UVB which had been pre-treated with 0 or 10 μM of RSKAKNPLYRRRRRRRRR 24 hours prior to being exposed to UVB radiation. The t-test (2-tailed) was used to determine statistical significance, *p<0.05, ***p<0.001.

[3] = molecular target: T1, Human rheumatoid synovial fibroblast MMP-1 (Homo sapiens, UniProt P03956); experiment: MMP-1 activity, fluorogenic substrate assay; assay type: biochemical; conditions: 5, 10, 800 and 1000 μM; 8 nM activated enzyme
T1 construct: endogenous in cells; host or cells: human rheumatoid synovial fibroblasts
T1 sequence (P03956 100-469): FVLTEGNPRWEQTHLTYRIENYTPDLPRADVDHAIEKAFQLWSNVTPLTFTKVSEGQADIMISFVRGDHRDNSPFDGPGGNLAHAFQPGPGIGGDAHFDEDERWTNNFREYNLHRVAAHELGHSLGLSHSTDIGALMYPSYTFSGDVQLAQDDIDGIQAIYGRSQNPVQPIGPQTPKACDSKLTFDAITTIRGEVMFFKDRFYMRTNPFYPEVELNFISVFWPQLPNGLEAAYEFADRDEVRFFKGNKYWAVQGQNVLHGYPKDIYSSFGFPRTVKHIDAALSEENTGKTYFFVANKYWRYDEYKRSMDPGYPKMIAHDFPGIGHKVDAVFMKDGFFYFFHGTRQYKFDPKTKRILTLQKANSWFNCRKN
Procedure: Human rheumatoid synovial fibroblast MMP-1 proenzyme, activated with APMA for 60 minutes at 37° C., was used as an active enzyme. The polypeptide IK34720 (SEQ ID NO: 3) at a concentration of 5 μM. 10 μM 800 μM and 1000 μM was pre-incubated with 8 nM activated enzyme in modified MOPS buffer pH 7.2 for 60 minutes at 37° C. The reaction was initiated by addition of […] Mca-Pro-Leu-Gly-Leu-Dap-Ala-Arg followed by a 2 hour incubation period. Determination of the amount of Mca-Pro-Leu-Gly formed was read spectrofluorimetrically at 340 nm/400 nm.

human skin explants [4] = experiment: sunburn (apoptotic) cells in UV-irradiated human skin explants; assay type: cell-based
Procedure: Skin explants were cultured irradiated and treated as described above for CPD, and subsequent to treatment were stained and quantified as described for Example 6.

[5] = test system: MM1418-C1 lightly pigmented melanoma cells; experiment: melanin content after UVB, melanoma cells; assay type: cell-based; conditions: 10 μM for 24 hours prior to 2 kJ/m2 UVB; measured 24 hours later; relative to untreated UVB cells
Procedure: as §1, §2

Skh: hr1 hairless mice = experiment: CPD (thymine dimer) immunohistochemistry in UV-irradiated mouse skin; assay type: in vivo; conditions: topical immediately after UVR; IK34720 20, 100 or 200 μg, Calcitriol 11.4 pmol/cm2; 3 hours post-UVR; vs vehicle
Procedure: Female Skh: hr1 hairless mice were exposed to solar simulated UV-irradiation as described above at Example 4. Immediately after irradiation mice were treated topically on the dorsal surface also as described in Example 4. Subsequently, skin was fixed at 3 hours post-UVR, and subjected to immuno-histochemical staining using the antibody directed against thymine dimers (CPD) described above at 10 μg/ml. […] In FIG. 9, dark staining in nuclei indicates the presence of thymine dimers (CPD), and the % area stained is presented. Immunohistology was quantified as per Example 4.

## RSKAKNPLYRRRRRRRRR (not fully specified (some residues)) [IK34720]
Human skin explants [1]; 500 μM, 3 hrs post irradiation, two individuals
  percentage of CPD positive cells: statistically significantly reduced
Human skin explants [1]; 3 hrs post irradiation/treatment, Calcitriol 1 nM, IK34720 50, 250 or 500 μM
  cells stained for CPDs: fewer stained cells
[2]
  melanin content: significantly decreased melanin content
[3]
  MMP-1 activity: inhibits MMP-1 activation in a dose dependent manner
Human skin explants [4]; 50 μM and 250 μM, 3 hrs and 24 hrs post UV-irradiation
  number of apoptotic cells: reduces the number of apoptotic cells
Human skin explants [4]; 80 μM, 400 μM and 800 μM, following UV-irradiation, data not shown
  number of apoptotic cells: statistically significantly reduces the number of apoptotic cells
Human skin explants [4]; 500 μM, 3 hrs and 24 hrs post UV-irradiation
  number of apoptotic cells: statistically significantly reduces the number of apoptotic cells
[5]
  melanin content: significantly decreased melanin content
Skh: hr1 hairless mice
  CPD formation in the skin (% area stained): inhibits CPD formation
